Reference: patent US10307425B2, “Compositions and methods for treating toxoplasmosis, cryptosporidiosis and other apicomplexan protozoan related diseases” (UNIVERSITY OF WASHINGTON, priority 2015, dated 2019)

What follows are molecules tested against TgCDPK1 (Toxoplasma gondii, UniProt Q9BJF5) (assay: biochemical).
TgCDPK1, sequence (Q9BJF5 1-507): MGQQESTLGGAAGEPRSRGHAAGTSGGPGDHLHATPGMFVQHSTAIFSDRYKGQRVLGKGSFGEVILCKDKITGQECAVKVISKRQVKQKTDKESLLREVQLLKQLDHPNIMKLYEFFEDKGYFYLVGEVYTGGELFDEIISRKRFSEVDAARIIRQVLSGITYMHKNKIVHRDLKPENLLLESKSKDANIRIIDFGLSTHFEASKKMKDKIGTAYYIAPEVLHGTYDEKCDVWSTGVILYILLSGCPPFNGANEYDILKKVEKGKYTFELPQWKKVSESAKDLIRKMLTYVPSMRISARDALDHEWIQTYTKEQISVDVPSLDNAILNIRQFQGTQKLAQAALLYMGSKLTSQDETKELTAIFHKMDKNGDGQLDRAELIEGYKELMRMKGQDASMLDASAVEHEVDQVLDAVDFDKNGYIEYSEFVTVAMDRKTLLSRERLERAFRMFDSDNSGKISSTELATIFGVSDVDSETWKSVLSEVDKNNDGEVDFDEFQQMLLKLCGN

Going from `COCCOc1ccc2cc(-c3nn(CC4CCN(C)CC4)c4ncnc(N)c34)ccc2n1` [Example 42, 3-(2-(2-methoxyethoxy)quinolin-6-yl)-1-((1-methylpiperidin-4-yl)methyl)-1H-pyrazolo[3,4-d]pyrimidin-4-amine] to `COC(=O)COc1ccc2cc(-c3nn(CC4CCN(C)CC4)c4ncnc(N)c34)ccc2c1` [Example 72, methyl 2-((6-(4-amino-1-((1-methylpiperidin-4-yl)methyl)-1H-pyrazolo[3,4-d]pyrimidin-3-yl)naphthalen-2-yl)oxy)acetate], the IC50 rises from 8 nM to 49.6 nM (6.2-fold). The first is the more potent here.

First: Nc1ncnc2c1c(-c1ccc3nc(OCC(F)(F)F)ccc3c1)nn2CC1CCNCC1 [Example 44, 1-(piperidin-4-ylmethyl)-3-(2-(2,2,2-trifluoroethoxy)quinolin-6-yl)-1H-pyrazolo[3,4-d]pyrimidin-4-amine]
Second: CC(C)(O)Cn1nc(-c2ccc3nc(OCC(F)(F)F)ccc3c2)c2c(N)ncnc21 [Example 46, 1-(4-amino-3-(2-(2,2,2-trifluoroethoxy)quinolin-6-yl)-1H-pyrazolo[3,4-d]pyrimidin-1-yl)-2-methylpropan-2-ol]
The IC50 of the first is 13-fold lower: 1.4 nM for the first, 18.3 nM for the second. The first is the more potent here.

Going from `CC(C)(COCCO)Cn1nc(-c2ccc3nc(OC4CC4)ccc3c2)c2c(N)ncnc21` [Example 45, 2-(3-(4-amino-3-(2-cyclopropoxyquinolin-6-yl)-1H-pyrazolo[3,4-d]pyrimidin-1-yl)-2,2-dimethylpropoxy)ethanol] to `COC(C)(C)Cn1nc(-c2ccc3nc(OC4CC4)ccc3c2)c2c(N)ncnc21` [Example 67, 3-(2-cyclopropoxyquinolin-6-yl)-1-(2-methoxy-2-methylpropyl)-1H-pyrazolo[3,4-d]pyrimidin-4-amine], the IC50 falls from 1200 nM to 430 nM (2.8-fold). The second is the more potent here.

Compared with `CCOc1ccc2ccc(-c3nn(CC(C)C)c4ncnc(N)c34)cc2c1` [Example 47, 3-(7-ethoxynaphthalen-2-yl)-1-isobutyl-1H-pyrazolo[3,4-d]pyrimidin-4-amine], `CCOc1ccc2cc(-c3nn(CC4(C)COC4)c4ncnc(N)c34)ccc2c1` [Example 49, 3-(6-ethoxynaphthalen-2-yl)-1-((3-methyloxetan-3-yl)methyl)-1H-pyrazolo[3,4-d]pyrimidin-4-amine] is 3.7-fold lower in IC50: 10.8 nM for the first, 2.9 nM for the second. The second is the more potent here.

`CCOc1ccc2ccc(-c3nn(CC4CCNCC4)c4ncnc(N)c34)cc2c1` [Example 48, 3-(7-ethoxynaphthalen-2-yl)-1-(piperidin-4-ylmethyl)-1H-pyrazolo[3,4-d]pyrimidin-4-amine] and `CCOc1ccc2cc(-c3nn(CC4(O)CCNCC4)c4ncnc(N)c34)ccc2c1` [Example 70, 4-((4-amino-3-(6-ethoxynaphthalen-2-yl)-1H-pyrazolo[3,4-d]pyrimidin-1-yl)methyl)piperidin-4-ol] are within 1.5-fold of each other in IC50: 19.1 nM for the first, 23.3 nM for the second.

Compared with `CCOc1ccc2cc(-c3nn(CC(=O)N4CCOCC4)c4ncnc(N)c34)ccc2c1` [Example 50, 2-(4-amino-3-(6-ethoxynaphthalen-2-yl)-1H-pyrazolo[3,4-d]pyrimidin-1-yl)-1-morpholinoethanone], `Nc1ncnc2c1c(-c1ccc3cc(OC4CC4)ccc3c1)nn2CC(=O)N1CCOCC1` [Example 51, 2-(4-amino-3-(6-cyclopropoxynaphthalen-2-yl)-1H-pyrazolo[3,4-d]pyrimidin-1-yl)-1-morpholinoethanone] is 2.7-fold lower in IC50: 42.9 nM for the first, 15.8 nM for the second.

Compared with `COCc1ccc2cc(-c3nn(CC(O)(C(F)(F)F)C(F)(F)F)c4ncnc(N)c34)ccc2c1` [Example 52, 2-((4-amino-3-(6-(methoxymethyl)naphthalen-2-yl)-1H-pyrazolo[3,4-d]pyrimidin-1-yl)methyl)-1,1,1,3,3,3-hexafluoropropan-2-ol], `Nc1ncnc2c1c(-c1ccc3nc(OC4CC4)ccc3c1)nn2CC(O)(C(F)(F)F)C(F)(F)F` [Example 53, 2-((4-amino-3-(2-cyclopropoxyquinolin-6-yl)-1H-pyrazolo[3,4-d]pyrimidin-1-yl)methyl)-1,1,1,3,3,3-hexafluoropropan-2-ol] is 1.8-fold lower in IC50: 84.2 nM for the first, 47.3 nM for the second. The second is the more potent here.

First: CC(C)(O)Cn1cc(-c2ccc3nc(OC4CC4)ccc3c2)c2c(N)ncnc21 [Example 55, 1-(4-amino-5-(2-cyclopropoxyquinolin-6-yl)-7H-pyrrolo[2,3-d]pyrimidin-7-yl)-2-methylpropan-2-ol]
Second: CC(C)(O)Cn1cc(-c2ccc3cc(OC4CC4)ccc3c2)c2c(N)ncnc21 [Example 58, 1-(4-amino-5-(6-cyclopropoxynaphthalen-2-yl)-7H-pyrrolo[2,3-d]pyrimidin-7-yl)-2-methylpropan-2-ol]
The IC50 of the first is 2.8-fold lower: 3.2 nM for the first, 9.1 nM for the second. The first is the more potent here.

Going from `CC(C)(O)C(C)(C)Cn1nc(-c2ccc3nc(OC4CC4)ccc3c2)c2c(N)ncnc21` [Example 56, 4-(4-amino-3-(2-cyclopropoxyquinolin-6-yl)-1H-pyrazolo[3,4-d]pyrimidin-1-yl)-2,3,3-trimethylbutan-2-ol] to `COC(=O)C(C)(C)Cn1nc(-c2ccc3nc(OC4CC4)ccc3c2)c2c(N)ncnc21` [Example 69, methyl 3-(4-amino-3-(2-cyclopropoxyquinolin-6-yl)-1H-pyrazolo[3,4-d]pyrimidin-1-yl)-2,2-dimethylpropanoate], the IC50 falls from 70.8 nM to 43.2 nM (1.6-fold). The second is the more potent here.

Going from `Nc1ncnc2c1c(-c1ccc3nc(OC4CC4)ccc3c1)nn2CC1(O)CCC1` [Example 57, 1-((4-amino-3-(2-cyclopropoxyquinolin-6-yl)-1H-pyrazolo[3,4-d]pyrimidin-1-yl)methyl)cyclobutanol] to `Nc1ncnc2c1c(-c1ccc3nc(OC4CC4)ccc3c1)nn2CC1(O)CCCC1` [Example 60, 1-((4-amino-3-(2-cyclopropoxyquinolin-6-yl)-1H-pyrazolo[3,4-d]pyrimidin-1-yl)methyl)cyclopentanol], the IC50 rises from 6.1 nM to 12.7 nM (2.1-fold). The first is the more potent here.

Compared with `Nc1ncnc2c1c(-c1ccc3cc(OC4CC4)ccc3c1)nn2CC1(O)CCC1` [Example 59, 1-((4-amino-3-(6-cyclopropoxynaphthalen-2-yl)-1H-pyrazolo[3,4-d]pyrimidin-1-yl)methyl)cyclobutanol], `Nc1ncnc2c1c(-c1ccc3cc(OC4CC4)ccc3c1)nn2CC1(O)CCCC1` [Example 61, 1-((4-amino-3-(6-cyclopropoxynaphthalen-2-yl)-1H-pyrazolo[3,4-d]pyrimidin-1-yl)methyl)cyclopentanol] is 1.5-fold higher in IC50: 8.6 nM for the first, 13 nM for the second.

`Nc1ncnc2c1c(-c1ccc3nc(OC4CC4)ccc3c1)nn2CC1(O)CCOCC1` [Example 62, 4-((4-amino-3-(2-cyclopropoxyquinolin-6-yl)-1H-pyrazolo[3,4-d]pyrimidin-1-yl)methyl)-tetrahydro-2H-pyran-4-ol] and `Nc1ncnc2c1c(-c1ccc3cc(OC4CC4)ccc3c1)nn2CC1(O)CCOCC1` [Example 63, 4-((4-amino-3-(6-cyclopropoxynaphthalen-2-yl)-1H-pyrazolo[3,4-d]pyrimidin-1-yl)methyl)-tetrahydro-2H-pyran-4-ol] are within 1.5-fold of each other in IC50: 19.2 nM for the first, 12.8 nM for the second.

`Nc1ncnc2c1c(-c1ccc3nc(OC4CC4)ccc3c1)nn2CC1(CO)COC1` [Example 64, (3-((4-amino-3-(2-cyclopropoxyquinolin-6-yl)-1H-pyrazolo[3,4-d]pyrimidin-1-yl)methyl)oxetan-3-yl)methanol] and `Nc1ncnc2c1c(-c1ccc3cc(OC4CC4)ccc3c1)nn2CC1(CO)COC1` [Example 65, (3-((4-amino-3-(6-cyclopropoxynaphthalen-2-yl)-1H-pyrazolo[3,4-d]pyrimidin-1-yl)methyl)oxetan-3-yl)methanol] are within 1.5-fold of each other in IC50: 3.6 nM for the first, 2.9 nM for the second.

Going from `COC(C)(C)Cn1nc(-c2ccc3cc(OC4CC4)ccc3c2)c2c(N)ncnc21` [Example 66, 3-(6-cyclopropoxynaphthalen-2-yl)-1-(2-methoxy-2-methylpropyl)-1H-pyrazolo[3,4-d]pyrimidin-4-amine] to `CC(C)(F)Cn1nc(-c2ccc3cc(OC4CC4)ccc3c2)c2c(N)ncnc21` [Example 77, 3-(6-cyclopropoxynaphthalen-2-yl)-1-(2-fluoro-2-methylpropyl)-1H-pyrazolo[3,4-d]pyrimidin-4-amine], the IC50 falls from 1660 nM to 6.4 nM (260-fold). The second is the more potent here.

Compared with `COC(=O)C(C)(C)Cn1nc(-c2ccc3cc(OC4CC4)ccc3c2)c2c(N)ncnc21` [Example 68, methyl 3-(4-amino-3-(6-cyclopropoxynaphthalen-2-yl)-1H-pyrazolo[3,4-d]pyrimidin-1-yl)-2,2-dimethylpropanoate], `CC(C)(Cn1nc(-c2ccc3cc(OC4CC4)ccc3c2)c2c(N)ncnc21)C(=O)O` [Example 76, 3-(4-amino-3-(6-cyclopropoxynaphthalen-2-yl)-1H-pyrazolo[3,4-d]pyrimidin-1-yl)-2,2-dimethylpropanoic acid] is 2-fold higher in IC50: 9.7 nM for the first, 19.4 nM for the second.

First: CCOc1ccc2cc(-c3nn(CC4(O)CCN(C)CC4)c4ncnc(N)c34)ccc2c1 [Example 71, 4-((4-amino-3-(6-ethoxynaphthalen-2-yl)-1H-pyrazolo[3,4-d]pyrimidin-1-yl)methyl)-1-methylpiperidin-4-ol]
Second: CCOc1ccc2cc(-c3nn(CC4(C#N)CCN(C)CC4)c4ncnc(N)c34)ccc2c1 [Example 75, 4-((4-amino-3-(6-ethoxynaphthalen-2-yl)-1H-pyrazolo[3,4-d]pyrimidin-1-yl)methyl)-1-methylpiperidine-4-carbonitrile]
The IC50 of the first is 3.2-fold higher: 59.3 nM for the first, 18.3 nM for the second.

First: CN1CCC(Cn2nc(-c3ccc4cc(OCC#N)ccc4c3)c3c(N)ncnc32)CC1 [Example 73, 2-((6-(4-amino-1-((1-methylpiperidin-4-yl)methyl)-1H-pyrazolo[3,4-d]pyrimidin-3-yl)naphthalen-2-yl)oxy)acetonitrile]
Second: CN1CCC(O)(Cn2nc(-c3ccc4cc(OC5CC5)ccc4c3)c3c(N)ncnc32)CC1 [Example 79, 4-((4-amino-3-(6-cyclopropoxynaphthalen-2-yl)-1H-pyrazolo[3,4-d]pyrimidin-1-yl)methyl)-1-methylpiperidin-4-ol]
The IC50 of the first is 16-fold higher: 73.8 nM for the first, 4.5 nM for the second.

Compared with `CCOc1ccc2cc(-c3nn(CC4(C#N)CCNCC4)c4ncnc(N)c34)ccc2c1` [Example 74, 4-((4-amino-3-(6-ethoxynaphthalen-2-yl)-1H-pyrazolo[3,4-d]pyrimidin-1-yl)methyl)piperidine-4-carbonitrile], `Nc1ncnc2c1c(-c1ccc3cc(OC4CC4)ccc3c1)nn2CC1(O)CCNCC1` [Example 78, 4-((4-amino-3-(6-cyclopropoxynaphthalen-2-yl)-1H-pyrazolo[3,4-d]pyrimidin-1-yl)methyl)piperidin-4-ol] is 3.9-fold lower in IC50: 2.7 nM for the first, 0.7 nM for the second.
